Experimental data reported in ChEMBL document CHEMBL4342441, “Small molecules targeting HIF-1α pathway for cancer therapy in recent years” (Bioorg Med Chem, 2020).

How the values were obtained:
[1] = target: T1, Hypoxia-inducible factor 1-alpha (Homo sapiens, UniProt Q16665); test: Activation of HIF1 in human T47D cells after 30 mins by luciferase reporter gene assay; type: cell-based
[2] = target: T1, Hypoxia-inducible factor 1-alpha; test: Activation of HIF1 in human T47D cells; type: cell-based

T1 sequence (Q16665 whole entry): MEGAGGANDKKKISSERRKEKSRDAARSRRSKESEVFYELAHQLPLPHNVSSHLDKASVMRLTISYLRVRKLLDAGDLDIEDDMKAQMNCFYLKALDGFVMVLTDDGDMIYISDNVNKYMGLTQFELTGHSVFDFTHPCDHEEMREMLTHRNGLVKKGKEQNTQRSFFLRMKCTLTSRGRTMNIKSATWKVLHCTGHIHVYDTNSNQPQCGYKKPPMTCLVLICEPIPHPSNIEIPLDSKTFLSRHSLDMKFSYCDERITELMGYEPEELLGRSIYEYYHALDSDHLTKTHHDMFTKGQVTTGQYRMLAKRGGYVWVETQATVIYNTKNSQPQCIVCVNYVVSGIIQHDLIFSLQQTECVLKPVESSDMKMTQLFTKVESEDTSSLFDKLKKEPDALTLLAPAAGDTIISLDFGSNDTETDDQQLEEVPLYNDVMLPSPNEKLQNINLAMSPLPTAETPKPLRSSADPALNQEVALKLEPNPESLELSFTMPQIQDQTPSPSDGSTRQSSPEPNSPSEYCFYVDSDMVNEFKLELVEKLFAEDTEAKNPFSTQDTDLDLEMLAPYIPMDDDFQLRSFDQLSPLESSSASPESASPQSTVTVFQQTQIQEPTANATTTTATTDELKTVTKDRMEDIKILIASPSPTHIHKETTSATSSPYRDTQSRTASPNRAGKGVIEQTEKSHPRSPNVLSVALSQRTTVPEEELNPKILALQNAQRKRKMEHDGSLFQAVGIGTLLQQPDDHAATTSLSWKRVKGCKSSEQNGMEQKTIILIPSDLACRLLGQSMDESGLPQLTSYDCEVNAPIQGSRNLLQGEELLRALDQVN

**Q.** How did the IC50 [1] turn out when `COc1ccc([C@@H](O)[C@@H](C)Oc2ccc([C@@H]3CC[C@H](c4ccc(O[C@H](C)[C@H](O)c5ccc(OC)c(OC)c5)c(OC)c4)C3)cc2OC)cc1OC` was run?
**A.** 0.003 µM

**Q.** `COc1ccc([C@@H](O)[C@@H](C)Oc2ccc([C@H]3O[C@H](c4ccc(OC)c(OC)c4)[C@H](C)[C@H]3C)cc2OC)cc1OC` was tested. Which IC50 [2] did it give?
**A.** 0.02 µM
